Key:
ZfBGD2 = biological target: T1, ZfBGD2 (Zygaena filipendulae, UniProt A0A1W1EGN8); format: cell-based
T1 construct: expressed with and without (*) predicted native N-terminal signal peptide; retained in cells

ZfGBA1 = biological target: T2, ZfGBA1 (Zygaena filipendulae, UniProt A0A1W1EGM7); format: cell-based
T2 construct: expressed with and without (*) predicted native N-terminal signal peptide; retained in cells
T2 sequence (A0A1W1EGM7 entry or part of it): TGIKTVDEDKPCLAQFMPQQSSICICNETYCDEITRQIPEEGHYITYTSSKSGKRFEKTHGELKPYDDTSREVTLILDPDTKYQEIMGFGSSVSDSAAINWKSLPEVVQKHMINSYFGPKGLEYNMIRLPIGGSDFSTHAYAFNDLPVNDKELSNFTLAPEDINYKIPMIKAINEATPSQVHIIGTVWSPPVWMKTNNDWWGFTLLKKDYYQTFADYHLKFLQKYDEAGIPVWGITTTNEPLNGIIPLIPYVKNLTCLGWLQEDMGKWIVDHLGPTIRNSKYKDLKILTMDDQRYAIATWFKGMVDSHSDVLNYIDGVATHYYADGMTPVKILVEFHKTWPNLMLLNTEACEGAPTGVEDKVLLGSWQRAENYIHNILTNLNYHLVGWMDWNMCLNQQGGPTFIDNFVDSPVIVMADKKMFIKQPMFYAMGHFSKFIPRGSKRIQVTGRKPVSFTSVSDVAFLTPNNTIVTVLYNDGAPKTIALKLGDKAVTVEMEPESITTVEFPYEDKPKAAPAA

T1 sequence (A0A1W1EGN8 19-524 limits assumed): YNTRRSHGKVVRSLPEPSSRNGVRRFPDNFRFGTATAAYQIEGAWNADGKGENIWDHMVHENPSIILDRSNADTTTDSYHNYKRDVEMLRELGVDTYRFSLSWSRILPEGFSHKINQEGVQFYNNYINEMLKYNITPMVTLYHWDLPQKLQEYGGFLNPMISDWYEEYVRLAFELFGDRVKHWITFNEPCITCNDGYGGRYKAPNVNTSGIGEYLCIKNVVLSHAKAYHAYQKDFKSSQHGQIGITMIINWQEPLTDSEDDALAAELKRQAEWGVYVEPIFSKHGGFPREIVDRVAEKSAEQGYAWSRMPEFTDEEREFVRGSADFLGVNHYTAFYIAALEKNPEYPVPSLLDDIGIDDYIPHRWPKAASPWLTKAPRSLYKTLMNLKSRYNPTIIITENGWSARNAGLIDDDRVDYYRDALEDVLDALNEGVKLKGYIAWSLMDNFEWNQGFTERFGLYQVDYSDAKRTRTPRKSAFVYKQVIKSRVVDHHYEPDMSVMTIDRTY

| Compound | HCN release from re-suspended Sf9 cells, Feigl-Anger paper and colorimetric (ZfBGD2) | HCN release from re-suspended Sf9 cells, Feigl-Anger paper and colorimetric (ZfGBA1) |
| --- | --- | --- |
| CC(C)(C#N)O[C@@H]1O[C@H](CO)[C@@H](O)[C@H](O)[C@H]1O [lin, linamarin] | ZfBGD2 and ZfGBA1 also hydrolysed linamarin and lotaustralin | ZfBGD2 and ZfGBA1 also hydrolysed linamarin and lotaustralin |
| CC[C@](C)(C#N)O[C@@H]1O[C@H](CO)[C@@H](O)[C@H](O)[C@H]1O [lot, lotaustralin] | ZfBGD2 and ZfGBA1 also hydrolysed linamarin and lotaustralin | ZfBGD2 and ZfGBA1 also hydrolysed linamarin and lotaustralin |

From paper PMC5493921 (Royal Society Open Science, 2017)
